Holding throughout (type): cell-based, human
In assay [1] the test system is differentiated cells at the end of stage 5. Nature of the assay: C-peptide secretion in response to glucose and insulin secretagogues (ELISA). As to conditions: 1 hr, versus 2.5 mM glucose without secretagogues; 30 mM KCl, 100 μM tolbutamide, 2 μM Bay K8644, 0.5 mM IBMX, 250 μM carbachol. Here is the method:
(§1) The differentiated cells at the end of stage 5 were initially incubated at 37° C. for 30 min with DMEM (Life Technologies) containing minimal essential medium, 2.5 mM glucose and 1% B27 Supplement Xeno-Free CTS. This initial incubation was regarded as washing. Subsequently, the medium was discarded and then the cells were incubated with DMEM (100 μl per well) containing 2.5 mM glucose at 37° for 1 hr. After collecting the supernatant, the same cells were further cultured for 1 hr in 20 mM glucose-containing DMEM or 2.5 mM glucose-containing DMEM supplemented with various stimulants, e.g., 2 μM (−)-Bay K8644 (Sigma-Aldrich), 100 μM tolbutamide (Wako), 250 μM carbachol (Sigma-Aldrich), 0.5 mM IBMX or 30 mM potassium chloride (KCl) (Wako). The supernatant was collected again and stored at −20° C. until analysis. Finally, the cells were lysed with 0.01% Triton X-100 in PBS containing 1% protease inhibitor cocktail (Nacalai Tesque). Intracellular C-peptide and protein levels were quantitatively determined. C-peptide level was measured using a human C-peptide ELISA kit (ALPCO Diagnostics) according to the manufacturer's instructions. The total protein in cell lysate was quantitatively determined using a Bio-Rad reagent kit (Bio-Rad). The amount of C-peptide was normalized against the corresponding amount of the total protein.
(In general: An ELISA detects its analyte on a solid surface through an enzyme-linked reagent.)

In assay [2] the test system is endocrine progenitor cells. Nature of the assay: Stage 5 differentiation into endocrine cells, immunocytochemistry. As to conditions: for proportion of PDX1-positive/CP-negative cells / proportion of CP single-positive cells: end of stage 5; for proportion of CP single-positive cells: added to basal medium with exendin-4 and nicotinamide. Here is the method:
(§2) To this medium were added 50 ng/ml exendin-4 (Ex-4; Cell Sciences), 10 mM nicotinamide (NA; Sigma-Aldrich), and/or 100 μM 3-isobutyl-1-methylxanthine (IBMX; phosphodiesterase inhibitor; Wako), and/or 10 μM forskolin (FRKL; adenylate cyclase activator; Wako). The media were changed every two days.

Assay [3] concerns endocrine progenitor cells. Nature of the assay: Intracellular C-peptide content of cells differentiated at stage 5 (ELISA). To be noted: differentiated cells at the end of stage 5. Here is the method: as §2
as §1, with “The supernatant was collected again and stored at −20° C. until analysis. Finally, the cells were lysed with 0.01% Triton X-100 in PBS containing 1% protease inhibitor cocktail (Nacalai Tesque).” left out, “The amount of C-peptide was normalized against the corresponding amount of the total protein.” left out

The test system of assay [4] is endocrine progenitor cells. Nature of the assay: Stage 5 differentiation into endocrine cells, quantitative RT-PCR. Here is the method:
as §2

The test system of assay [5] is PG cells. Nature of the assay: Stage 3 differentiation into pancreatic progenitor cells, immunocytochemistry. An excerpt: (§3) The medium was changed every two days.
Assay [6] deals with PG cells. Nature of the assay: Stage 3 differentiation into pancreatic progenitor cells, quantitative RT-PCR. To be noted: higher concentrations of NOGGIN at stage 3, versus Nog 100.
Excerpt: as §3

Setting [7] is: 200 ng/ml NOGGIN in stage-3 media.
Where [8] appears, read: 200 ng/ml NOGGIN in stage-3 media with RA, KAAD-cyclopamine, SB431542.

The source of these data is patent publication US10457916B2, “Method for inducing differentiation of insulin-producing cells” (TOKYO INSTITUTE OF TECHNOLOGY, priority 2014, dated 2019).

Consider `COC(=O)C1=C(C)NC(C)=C([N+](=O)[O-])C1c1ccccc1C(F)(F)F` (single isomer, unassigned; (-)) [(−) BAY K8644], for which the “increase of C-peptide secretion” value in assay [1] was “approximately 4.9 fold”.
Consider `C=C[C@@]1(C)CC(=O)[C@]2(O)[C@@]3(C)[C@@H](O)CCC(C)(C)[C@@H]3[C@H](O)[C@H](OC(C)=O)[C@@]2(C)O1` [FRKL, forskolin], for which, in assay [2], the “proportion of PDX1-positive/CP-negative cells” value was “approximately 27%” and the “proportion of CP single-positive cells” value is given as 5.6-6.4%. Also, in assay [3], the “intracellular C-peptide contents” value is “approximately 62 ng/mg protein”.
As for `CC(C)Cn1c(=O)n(C)c(=O)c2[nH]cnc21` [IBMX, 3-isobutyl-1-methylxanthine], in assay [2], the “proportion of PDX1-positive/CP-negative cells” value is listed as “approximately 22%” and the “proportion of CP single-positive cells” value was 6.5-6.7%. Also, the “increase of C-peptide secretion” value in assay [1] was “approximately 4.9 fold”. Further, in assay [3], the “intracellular C-peptide contents” value is listed as “approximately 66 ng/mg protein”. In addition, the “expression levels of β-cell specific genes” value in assay [4] (IBMX-induced cells versus FRKL-induced cells) is given as “relatively higher”. For the same molecule, the INS expression result in assay [4] (added to basal medium (DMEM/F12, 1% B27, exendin-4 and nicotinamide) at stage 5, versus DMSO) was “significantly upregulated”. The “expression levels of β-cell maturity genes (PDX1, NKX6.1, MAF-A, ISL-1, UCN3, GCK, IAPP, SLC30A8)” value in assay [4] (end of stage 5, versus DMSO-induced cells) is “remarkably higher”.
Take `[Cl-].[K+]` [KCl, potassium chloride]: the “increase of C-peptide secretion” value in assay [1] is “approximately 8.3 fold”.
`C[N+](C)(C)CCOC(N)=O` [carbachol]: the “increase of C-peptide secretion” value in assay [1] is on record as “approximately 7.0 fold”.
In the case of `CCCCNC(=O)NS(=O)(=O)c1ccc(C)cc1` [tolbutamide], the “increase of C-peptide secretion” value in assay [1] is “approximately 3.0 fold”.

B1: NOGGIN: recombinant human NOGGIN, BMP signaling inhibitor (R&D Systems) (protein, UniProt Q13253 28-232, looked up)
Noggin: QHYLHIRPAPSDNLPLVDLIEHPDPIFDPKEKDLNETLLRSLLGGHYDPGFMATSPPEDRPGGGGGAAGGAEDLAELDQLLRQRPSGAMPSEIKGLEFSEGLAQGKKQRLSKKLRRKLQMWLWSQTFCPVLYAWNDLGSRFWPRYVKVGSCFSKRSCSVPEGMVCKPSKSVHLTVLRWRCQRRGGQRCGWIPIQYPIISECKCSC
For B1, in assay [2] (NOGGIN at 200 ng/ml compared to 100 ng/ml at stages 3 and 4), the “proportion of EC cells” value is on record as “higher proportion”. In the assay with PG cells [5] (100 ng/ml NOGGIN at stage 3), the “AFP-positive hepatic cells and CDX2-positive intestinal progenitor cells appearing” value was “considerable proportion”. For the same molecule, in the assay with PG cells [5] (setting [7]), the “AFP-positive cells in the total DAPI-positive cells” value is 4% and the “CDX2-positive cells in the total DAPI-positive cells” value was found to be 8%. Moreover, in the assay with PG cells [5] (setting [8]), the “PDX1-positive cells co-expressing HNF-6” value was “about 62%” and the “PDX1-positive cells co-expressing SOX9” value was “about 59%”. Further, the “numbers of AFP-positive hepatic cells and CDX2-positive intestinal progenitor cells” value in the assay on PG cells [5] (200-300 ng/ml NOGGIN at stage 3, versus 100 ng/ml) is “remarkably reduced”. For the same molecule, in the assay with PG cells [6], the “expression level of early-stage pancreatic dorsal bud gene HLXB9” value is “remarkably upregulated”; the “expression levels of PDX-1 and posterior foregut genes HNF6 and NKX6.1” value is on record as “remarkably upregulated”; the “gene expression levels of CDX2 and AFP” value is given as “remarkably reduced”.
